Measured values as given in US11136317B2, “NADPH oxidase 4 inhibitors” (ACTELION PHARMACEUTICALS LTD, priority 2015, dated 2021).

Biological target: T1, human NOX4 (Homo sapiens, UniProt Q9NPH5)
T1 construct: The full-length human NOX4 (NM_016931.3) transcript was cloned; expressed in transfected cells
T1 sequence (Q9NPH5 1-578): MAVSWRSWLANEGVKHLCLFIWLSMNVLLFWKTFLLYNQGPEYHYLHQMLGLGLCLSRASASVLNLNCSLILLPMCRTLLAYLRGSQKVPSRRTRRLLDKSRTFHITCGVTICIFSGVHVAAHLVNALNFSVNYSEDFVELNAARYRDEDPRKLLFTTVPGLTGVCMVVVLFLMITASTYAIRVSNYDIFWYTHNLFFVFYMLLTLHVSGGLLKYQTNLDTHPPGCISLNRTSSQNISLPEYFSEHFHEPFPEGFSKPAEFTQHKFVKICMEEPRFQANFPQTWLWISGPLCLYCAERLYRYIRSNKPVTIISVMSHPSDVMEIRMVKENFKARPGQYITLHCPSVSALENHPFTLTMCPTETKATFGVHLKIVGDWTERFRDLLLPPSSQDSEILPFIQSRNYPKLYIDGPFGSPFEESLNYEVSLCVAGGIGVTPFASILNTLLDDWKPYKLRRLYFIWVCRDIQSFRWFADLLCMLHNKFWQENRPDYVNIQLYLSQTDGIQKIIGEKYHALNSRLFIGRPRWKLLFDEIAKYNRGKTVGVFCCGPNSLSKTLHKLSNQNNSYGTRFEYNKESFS
T1 sequence (P13498 1-195 partner): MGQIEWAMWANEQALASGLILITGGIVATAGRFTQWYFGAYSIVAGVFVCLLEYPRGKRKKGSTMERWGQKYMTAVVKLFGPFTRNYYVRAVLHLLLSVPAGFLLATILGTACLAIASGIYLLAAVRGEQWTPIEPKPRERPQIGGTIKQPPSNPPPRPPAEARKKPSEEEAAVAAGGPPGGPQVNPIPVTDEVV
Test: Amplex Red activity assay (cellular H2O2 formation in hNOX4 T-REx-293 cells)
Assay type: cell-based
Details: tet-induced 24 h, extracellular H2O2 by Amplex Red, 60 min 25° C., geometric mean if determined several times
Summary of the method: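 Tet-induced (1 μg/mL, 24 h) HEK293 T-REx cells stably expressing full-length human NOX4, 20 000 cells/well, exposed to compounds (10 concentrations, 50 μM to 100 nM; 1.25% DMSO) for 60 min at 25°C. Extracellular H2O2 detected by Amplex Red resorufin fluorescence (ex 550/em 600 nm) versus vehicle; IC50 calculated.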

Structure (SMILES) | IC50
O=C(Nc1ccc2sc(N3CC[C@H](O)C3)nc2c1)c1ccc2c(c1)CCO2 [Example 98, (S)—N-(2-(3-hydroxypyrrolidin-1-yl)benzo[d]thiazol-5-yl)-2,3-dihydrobenzofuran-5-carboxamide] | 2.53 µM
O=C(Nc1ccc2sc(N3CCC4(CC3)COC4)nc2c1)c1ccc2c(c1)CCO2 [Example 99, 2,3-Dihydro-benzofuran-5-carboxylic acid [2-(2-oxa-7-aza-spiro[3.5]non-7-yl)-benzothiazol-5-yl]-amide] | 3.08 µM
CN(c1nc2cc(NC(=O)c3ccc4c(c3)CCO4)ccc2s1)C1CCN(C2COC2)CC1 [Example 100, 2,3-Dihydro-benzofuran-5-carboxylic acid {2-[methyl-(1-oxetan-3-yl-piperidin-4-yl)-amino]-benzothiazol-5-yl}-amide] | 3.39 µM
O=C(Nc1ccc2sc(N3CCCC4(COC4)C3)nc2c1)c1ccc2c(c1)CCO2 [Example 101, 2,3-Dihydro-benzofuran-5-carboxylic acid [2-(2-oxa-6-aza-spiro[3.5]non-6-yl)-benzothiazol-5-yl]-amide] | 2.37 µM
O=C(Nc1ccc2sc(N3CCN(C4COC4)CC3)nc2c1)c1ccc2c(c1)CCO2 [Example 102, 2,3-Dihydro-benzofuran-5-carboxylic acid [2-(4-oxetan-3-yl-piperazin-1-yl)-benzothiazol-5-yl]-amide] | 9.17 µM
CN(c1nc2cc(NC(=O)c3ccc4c(c3)CCO4)ccc2s1)C1COC1 [Example 103, 2,3-Dihydro-benzofuran-5-carboxylic acid [2-(methyl-oxetan-3-yl-amino)-benzothiazol-5-yl]-amide] | 3.21 µM
O=C(Nc1ccc2sc(N3CC4(CCO4)C3)nc2c1)c1ccc2c(c1)CCO2 [Example 104, 2,3-Dihydro-benzofuran-5-carboxylic acid [2-(1-oxa-6-aza-spiro[3.3]hept-6-yl)-benzothiazol-5-yl]-amide] | 6.87 µM
CN(C)CC1CCN(c2nc3cc(NC(=O)c4ccc5c(c4)CCO5)ccc3s2)C1 (stereo not drawn) [Example 105, 2,3-Dihydro-benzofuran-5-carboxylic acid [2-(3-dimethylaminomethyl-pyrrolidin-1-yl)-benzothiazol-5-yl]-amide] | 14.8 µM
CC(C)OC1CN(c2nc3cc(NC(=O)c4ccc5c(c4)CCO5)ccc3s2)C1 [Example 106, 2,3-Dihydro-benzofuran-5-carboxylic acid [2-(3-isopropoxy-azetidin-1-yl)-benzothiazol-5-yl]-amide] | 9.39 µM
CCOCC1CCCN1c1nc2cc(NC(=O)c3ccc4c(c3)CCO4)ccc2s1 (stereo not drawn) [Example 107, 2,3-Dihydro-benzofuran-5-carboxylic acid [2-(2-ethoxymethyl-pyrrolidin-1-yl)-benzothiazol-5-yl]-amide] | 9.51 µM

Results, then the compound that gave them:

IC50 | Structure (SMILES)
2.54 µM | COC1CCCN(c2nc3cc(NC(=O)c4ccc5c(c4)CCO5)ccc3s2)C1 (stereo not drawn) [Example 108, 2,3-Dihydro-benzofuran-5-carboxylic acid [2-(3-methoxy-piperidin-1-yl)-benzothiazol-5-yl]-amide]
1.78 µM | O=C(Nc1ccc2sc(N3CC(O)C3)nc2c1)c1ccc2c(c1)CCO2 [Example 109, 2,3-Dihydro-benzofuran-5-carboxylic acid [2-(3-hydroxy-azetidin-1-yl)-benzothiazol-5-yl]-amide]
2.03 µM | O=C(Nc1ccc2sc(N3CCC(O)CC3)nc2c1)c1ccc2c(c1)CCO2 [Example 110, 2,3-Dihydro-benzofuran-5-carboxylic acid [2-(4-hydroxy-piperidin-1-yl)-benzothiazol-5-yl]-amide]
2.27 µM | O=C(Nc1ccc2sc(N3CC[C@@H](O)C3)nc2c1)c1ccc2c(c1)CCO2 [Example 112, 2,3-Dihydro-benzofuran-5-carboxylic acid [2-((R)-3-hydroxy-pyrrolidin-1-yl)-benzothiazol-5-yl]-amide]
3.25 µM | COCC1CCCN1c1nc2cc(NC(=O)c3ccc4c(c3)CCO4)ccc2s1 (stereo not drawn) [Example 113, 2,3-Dihydro-benzofuran-5-carboxylic acid [2-(2-methoxymethyl-pyrrolidin-1-yl)-benzothiazol-5-yl]-amide]
